Measured values as given in PMC12441834, “Highly Potent and Subtype-Selective Sperm-Specific Potassium Channel SLO3 Inhibitors Display High Tissue Exposure in the Murine Female Reproductive Tract” (ACS Pharmacology & Translational Science, 2025).

How the values were obtained:
[1] = target: Dopamine D1 (Homo sapiens, UniProt P21728); test: LeadProfilingScreen radioligand binding
[2] = tested on: Purinergic P2Y, Non-Selective; test: LeadProfilingScreen radioligand binding; set-up: species or system rat
[3] = target: Sigma σ1 (Homo sapiens, UniProt Q99720); test: LeadProfilingScreen radioligand binding
Sigma σ1, sequence (Q99720 whole entry): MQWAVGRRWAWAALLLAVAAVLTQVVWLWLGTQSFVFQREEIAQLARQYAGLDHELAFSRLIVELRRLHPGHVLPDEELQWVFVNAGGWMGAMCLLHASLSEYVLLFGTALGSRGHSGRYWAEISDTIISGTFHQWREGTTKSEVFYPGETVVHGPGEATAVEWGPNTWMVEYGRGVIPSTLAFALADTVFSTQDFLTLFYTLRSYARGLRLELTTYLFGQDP

[4] = target: CYP3A4 (Homo sapiens, UniProt P08684); test: CYP450 inhibition; assay type: in vitro ADME; settings: read-out: CYP450 Inhibition, 3A4
CYP3A4, sequence (P08684 whole entry, species assumed): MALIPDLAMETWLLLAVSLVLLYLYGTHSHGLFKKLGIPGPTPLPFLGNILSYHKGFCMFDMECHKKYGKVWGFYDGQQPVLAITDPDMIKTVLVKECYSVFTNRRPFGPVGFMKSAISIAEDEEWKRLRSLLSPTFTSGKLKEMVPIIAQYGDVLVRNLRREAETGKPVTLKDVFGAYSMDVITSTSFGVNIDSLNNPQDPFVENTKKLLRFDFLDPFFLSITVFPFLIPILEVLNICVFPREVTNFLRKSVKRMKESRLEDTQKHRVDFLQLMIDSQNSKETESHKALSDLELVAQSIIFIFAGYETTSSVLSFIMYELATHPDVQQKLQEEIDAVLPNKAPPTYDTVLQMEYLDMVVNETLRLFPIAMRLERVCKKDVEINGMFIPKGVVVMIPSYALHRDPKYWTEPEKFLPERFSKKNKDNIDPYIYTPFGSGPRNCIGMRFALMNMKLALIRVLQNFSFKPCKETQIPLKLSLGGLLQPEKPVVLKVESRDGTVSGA

[5] = target: Glutamate, NMDA, Glycine (Rattus norvegicus, UniProt P35439); test: LeadProfilingScreen radioligand binding
Glutamate, NMDA, Glycine, sequence (P35439 394-800 limits assumed): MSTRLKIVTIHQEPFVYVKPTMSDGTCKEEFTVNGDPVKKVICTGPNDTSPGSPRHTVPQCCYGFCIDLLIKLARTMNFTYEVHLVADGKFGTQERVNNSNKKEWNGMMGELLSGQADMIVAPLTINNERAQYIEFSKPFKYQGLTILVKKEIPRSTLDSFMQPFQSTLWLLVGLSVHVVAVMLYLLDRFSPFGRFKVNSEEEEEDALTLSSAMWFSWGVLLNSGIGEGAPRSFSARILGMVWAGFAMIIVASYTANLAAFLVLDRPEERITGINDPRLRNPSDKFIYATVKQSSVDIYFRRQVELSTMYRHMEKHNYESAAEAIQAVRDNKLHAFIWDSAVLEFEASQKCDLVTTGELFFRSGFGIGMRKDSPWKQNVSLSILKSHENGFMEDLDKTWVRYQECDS

[6] = target: Tachykinin NK1 (Homo sapiens, UniProt P25103); test: LeadProfilingScreen radioligand binding
Tachykinin NK1, sequence (P25103 whole entry): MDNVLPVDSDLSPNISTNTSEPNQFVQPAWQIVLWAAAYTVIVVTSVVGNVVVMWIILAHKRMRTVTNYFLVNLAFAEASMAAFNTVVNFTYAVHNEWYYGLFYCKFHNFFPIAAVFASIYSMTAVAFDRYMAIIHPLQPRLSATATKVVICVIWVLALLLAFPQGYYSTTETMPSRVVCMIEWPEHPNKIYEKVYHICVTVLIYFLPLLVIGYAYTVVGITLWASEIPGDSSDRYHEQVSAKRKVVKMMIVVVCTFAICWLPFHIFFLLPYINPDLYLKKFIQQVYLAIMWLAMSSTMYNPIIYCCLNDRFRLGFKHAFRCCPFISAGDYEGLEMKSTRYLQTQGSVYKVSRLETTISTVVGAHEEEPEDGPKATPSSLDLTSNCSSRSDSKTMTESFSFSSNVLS

[7] = target: Adrenergic β2 (Homo sapiens, UniProt P07550); test: LeadProfilingScreen radioligand binding
[8] = target: Potassium Channel [KATP] (Cricetus cricetus, UniProt Q09427); test: LeadProfilingScreen radioligand binding; set-up: species or system hamster
Method: Both lead compounds, VU6047606 and VU6032735, were subjected to radioligand binding assays in a Eurofins LeadProfilingScreen SafetyScreen Panel to detect potential adverse activity, relative selectivity, and off-target activity. Compounds were screened at 10 μM and percent inhibition was monitored across 68 potential off-target G protein-coupled receptors, ion channels, nuclear hormone receptors, and transporters. ,

[9] = target: Platelet Activating Factor (PAF) (Homo sapiens, UniProt P25105); test: LeadProfilingScreen radioligand binding
Platelet Activating Factor (PAF), sequence (P25105 whole entry): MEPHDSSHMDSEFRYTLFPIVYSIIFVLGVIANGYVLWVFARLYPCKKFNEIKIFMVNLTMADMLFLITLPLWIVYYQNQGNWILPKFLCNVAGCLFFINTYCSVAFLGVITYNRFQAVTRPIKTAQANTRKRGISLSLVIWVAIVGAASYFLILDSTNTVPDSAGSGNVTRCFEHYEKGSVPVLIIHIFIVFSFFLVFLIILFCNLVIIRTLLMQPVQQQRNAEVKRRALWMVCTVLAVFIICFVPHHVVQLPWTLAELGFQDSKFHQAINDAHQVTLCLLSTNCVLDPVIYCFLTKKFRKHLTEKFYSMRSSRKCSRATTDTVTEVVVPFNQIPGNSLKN

[10] = target: Adrenergic α1A (Homo sapiens, UniProt P35348); test: LeadProfilingScreen radioligand binding
[11] = target: Nicotinic Acetylcholine α3β4 (Homo sapiens, UniProt P30926+P32297); test: LeadProfilingScreen radioligand binding
[12] = tested on: GABAA, Flunitrazepam, Central; test: LeadProfilingScreen radioligand binding; set-up: species or system rat
[13] = target: Endothelin ETA (Homo sapiens, UniProt P25101); test: LeadProfilingScreen radioligand binding
Endothelin ETA, sequence (P25101 21-427): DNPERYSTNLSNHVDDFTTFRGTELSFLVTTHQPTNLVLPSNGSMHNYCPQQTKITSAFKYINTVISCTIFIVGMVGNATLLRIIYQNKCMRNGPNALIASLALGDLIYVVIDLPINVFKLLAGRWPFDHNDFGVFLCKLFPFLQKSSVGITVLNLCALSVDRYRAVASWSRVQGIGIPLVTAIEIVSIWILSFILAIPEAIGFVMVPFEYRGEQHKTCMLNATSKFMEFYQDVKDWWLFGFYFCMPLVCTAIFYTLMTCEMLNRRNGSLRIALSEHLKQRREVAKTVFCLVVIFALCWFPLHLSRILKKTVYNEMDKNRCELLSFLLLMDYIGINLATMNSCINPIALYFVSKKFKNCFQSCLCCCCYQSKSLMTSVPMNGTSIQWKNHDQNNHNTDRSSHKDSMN

[14] = target: Dopamine D2S (Homo sapiens, UniProt P14416); test: LeadProfilingScreen radioligand binding
Dopamine D2S, sequence (P14416 1-414 isoform P14416-2): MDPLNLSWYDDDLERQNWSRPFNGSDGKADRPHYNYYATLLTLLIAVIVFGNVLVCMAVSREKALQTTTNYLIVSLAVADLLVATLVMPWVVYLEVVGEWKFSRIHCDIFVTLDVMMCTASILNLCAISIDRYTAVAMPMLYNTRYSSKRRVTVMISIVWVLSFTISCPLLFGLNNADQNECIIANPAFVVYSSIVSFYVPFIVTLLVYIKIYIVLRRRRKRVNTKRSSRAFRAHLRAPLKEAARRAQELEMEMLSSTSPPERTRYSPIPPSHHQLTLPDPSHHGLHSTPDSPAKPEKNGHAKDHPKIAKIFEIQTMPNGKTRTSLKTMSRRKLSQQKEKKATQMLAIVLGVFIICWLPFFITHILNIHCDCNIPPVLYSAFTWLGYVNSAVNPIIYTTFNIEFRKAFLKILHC

[15] = target: Transporter, GABA (Rattus norvegicus, UniProt P23978); test: LeadProfilingScreen radioligand binding
[16] = tested on: Rolipram; test: LeadProfilingScreen radioligand binding; set-up: species or system rat
[17] = tested on: Glutamate, NMDA, Phencyclidine; test: LeadProfilingScreen radioligand binding; set-up: species or system rat
[18] = target: Bradykinin B1 (Homo sapiens, UniProt P46663); test: LeadProfilingScreen radioligand binding
Bradykinin B1, sequence (P46663 whole entry): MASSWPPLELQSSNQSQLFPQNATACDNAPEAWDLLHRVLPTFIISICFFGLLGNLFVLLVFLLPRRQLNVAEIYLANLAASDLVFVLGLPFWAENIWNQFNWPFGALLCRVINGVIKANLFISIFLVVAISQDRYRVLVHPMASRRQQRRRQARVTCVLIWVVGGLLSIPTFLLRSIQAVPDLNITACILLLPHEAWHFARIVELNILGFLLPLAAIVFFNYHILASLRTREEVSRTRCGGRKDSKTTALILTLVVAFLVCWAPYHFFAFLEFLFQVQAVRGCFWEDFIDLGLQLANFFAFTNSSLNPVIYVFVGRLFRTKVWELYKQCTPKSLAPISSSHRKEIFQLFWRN

[19] = target: Muscarinic M1 (Homo sapiens, UniProt P11229); test: LeadProfilingScreen radioligand binding
Muscarinic M1, sequence (P11229 whole entry): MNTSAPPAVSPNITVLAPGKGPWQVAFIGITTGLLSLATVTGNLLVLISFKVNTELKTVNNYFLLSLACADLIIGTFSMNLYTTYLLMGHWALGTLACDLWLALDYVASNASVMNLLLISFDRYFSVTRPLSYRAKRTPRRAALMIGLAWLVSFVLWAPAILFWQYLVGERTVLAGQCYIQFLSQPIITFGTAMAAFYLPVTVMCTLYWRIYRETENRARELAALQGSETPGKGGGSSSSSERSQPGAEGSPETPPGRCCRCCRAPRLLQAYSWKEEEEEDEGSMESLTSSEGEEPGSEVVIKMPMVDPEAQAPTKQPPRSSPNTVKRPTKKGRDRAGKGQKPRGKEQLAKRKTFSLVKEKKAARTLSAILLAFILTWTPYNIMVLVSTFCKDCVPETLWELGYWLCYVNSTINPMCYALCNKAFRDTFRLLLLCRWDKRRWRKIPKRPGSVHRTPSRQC

[20] = Discrete IV PK in female mice; assay type: in vivo, mouse; settings: 5 mg/kg IV
Method: In-life phase–Compounds were formulated in 12% ethanol, 48% PEG400, and 40% DMSO (v/v/v) at a concentration of 1 mg/mL and administered as a single 0.2 mg/kg IV dose (1 mL/kg) to male, Sprague–Dawley rats (n = 1; 342 g body weight) via injection into a surgically implanted jugular vein catheter. Blood samples were collected serially from a surgically implanted carotid artery catheter in each animal over multiple postadministration time points (0.033, 0.117, 0.25, 0.5, 1, 2, 4, 7, and 24 h) into chilled, K2EDTA anticoagulant-fortified tubes and immediately placed on wet ice. The blood samples were then centrifuged (1700 rcf, 5 min, 4 °C) in order to obtain plasma samples, which were stored at −80 °C until analysis by LC-MS/MS. VU6032735 was also dosed IV in C57Bl6 mice at 5 mg/kg IV to determine mouse PK. Formulation and experimental design were identical to those used for rats except that whole blood was used for analysis.
Samples were analyzed via electrospray ionization (ESI) LC-MS/MS on an AB Sciex 4500 (Foster City, CA) triple-quadrupole instrument that was coupled with an Agilent 1290 Infinity Binary Pump and multisampler (Santa Clara, CA) and concentrations (ng/mL or ng/g) were determined using a matrix-matched 10-point standard curve and then converted to nM concentrations. Quantitation of compounds was performed via AB Sciex Multiquant software using the raw analyte:IS peak area ratios. The typical detection range was 0.5 ng/mL to ≥5000 ng/mL utilizing a quadratic equation regression with 1/x² weighting. Correction for dilution of all tissue samples was performed postquantitation. The corrections for dilution in the extraction buffer employed correction factors specific to each tissue weight.

Dopamine D1, sequence (P21728 whole entry): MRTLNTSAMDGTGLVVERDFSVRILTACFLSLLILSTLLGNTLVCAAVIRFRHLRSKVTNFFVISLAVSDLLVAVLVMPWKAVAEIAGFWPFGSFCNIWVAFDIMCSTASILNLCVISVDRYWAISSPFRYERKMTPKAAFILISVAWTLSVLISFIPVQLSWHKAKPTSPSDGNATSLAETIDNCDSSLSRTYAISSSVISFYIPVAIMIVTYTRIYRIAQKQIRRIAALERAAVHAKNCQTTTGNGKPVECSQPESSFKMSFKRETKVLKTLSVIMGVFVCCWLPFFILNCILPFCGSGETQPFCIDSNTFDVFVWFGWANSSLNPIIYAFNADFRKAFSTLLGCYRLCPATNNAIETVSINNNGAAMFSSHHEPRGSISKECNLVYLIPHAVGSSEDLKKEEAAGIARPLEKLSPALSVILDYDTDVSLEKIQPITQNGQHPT

Row | Structure (SMILES) | inhibition at 10 µM [1] | % inhibition at 10 μM [2] | inhibition at 10 µM [3] | IC50 [4] | inhibition at 10 µM [5] | inhibition at 10 µM [6] | inhibition at 10 µM [7] | inhibition at 10 µM [8] | inhibition at 10 µM [9] | inhibition at 10 µM [10] | inhibition at 10 µM [11] | % inhibition at 10 μM [12] | inhibition at 10 µM [13] | inhibition at 10 µM [14] | inhibition at 10 µM [15] | % inhibition at 10 μM [16] | % inhibition at 10 μM [17] | inhibition at 10 µM [18] | inhibition at 10 µM [19] | other results
1 | Cc1cc(Cl)cc2sc(O[C@H]3CCN(C(=O)CCCS(=O)(=O)c4cccc(Br)c4)C[C@H]3F)nc12 [VU6047606] | 25% | 7% | 62% | > 30 µM | -1% | 8% | 5% | -5% | 8% | 4% | -7% | 11% | 5% | -7% | 4% | 19% | 6% | -5% | 6% | –
2 | O=C(c1ccc(OCc2ccc(OC(F)(F)F)cc2)cc1)N1CCN(c2ccc(C(F)(F)F)cn2)CC1 [VU6032735] | 12% | 24% | -3% | > 30 µM | -3% | 7% | 5% | -7% | -2% | -1% | -6% | 5% | 9% | -2% | -4% | 7% | 8% | 4% | -8% | CLobs [20]: 8.6 mL/min/kg; AUC ([20]; C57Bl6, mouse, whole blood): 9840 ng·h/mL; MRT ([20]; C57Bl6, mouse, whole blood): 45.9 h; half-life ([20]; C57Bl6, mouse, whole blood, read-out: Elim. t1/2 (converted)): 33.7 h; Vd ([20]; C57Bl6, mouse, whole blood, read-out: Vss): 23.6 L/kg
